# Like-named read-outs stand apart in the source and are kept apart here.
# How the values were obtained:
# [1] = test system: acute uncomplicated seasonal influenza A; assay: Clinical study: nasal viral load by qRT-PCR (AUC, LS means, time to viral negativity); format: in vivo, human; conditions: for LS Means viral load (qRT-PCR) Day 3 / LS Means viral load (qRT-PCR) Day 4 / LS Means viral load (qRT-PCR) Day 6 / LS Means viral load (qRT-PCR) Day 8: log10 nasal viral load; for LS Means viral load (qRT-PCR) Day 3 / LS Means viral load (qRT-PCR) Day 4 / LS Means viral load (qRT-PCR) Day 6 / LS Means viral load (qRT-PCR) Day 8 / Change in AUC Viral Load (by qRT-PCR) Days 1 to 8 versus placebo / Time to influenza A negativity (qRT-PCR) Acceleration Factor: Full Analysis Set; for Time to influenza A negativity (qRT-PCR) Acceleration Factor: versus placebo, accelerated failure time model
# Influenza A = format: in vivo, human; conditions: for Acceleration Factor, time to Influenza A negativity (TCID50), treatment versus placebo: accelerated failure time model, Full Analysis Set
structure (smiles),measurement,setting,value
"O=C(O)[C@H]1C2CCC(CC2)[C@@H]1Nc1nc(-c2c[nH]c3ncc(F)cc23)ncc1F [Compound (1), Pimodivir]",LS Means viral load (qRT-PCR) Day 3,[1]; Cmpd (1) 300 mg + OST placebo,5.2
same,LS Means viral load (qRT-PCR) Day 4,[1]; Cmpd (1) 300 mg + OST placebo,3.9
same,LS Means viral load (qRT-PCR) Day 6,[1]; Cmpd (1) 300 mg + OST placebo,2.5
same,LS Means viral load (qRT-PCR) Day 8,[1]; Cmpd (1) 300 mg + OST placebo,1.4
same,LS Means viral load (qRT-PCR) Day 3,[1]; Cmpd (1) 600 mg + OST placebo,4.9
same,LS Means viral load (qRT-PCR) Day 4,[1]; Cmpd (1) 600 mg + OST placebo,3.8
same,LS Means viral load (qRT-PCR) Day 6,[1]; Cmpd (1) 600 mg + OST placebo,2.5
same,LS Means viral load (qRT-PCR) Day 8,[1]; Cmpd (1) 600 mg + OST placebo,1.0
same,reduction of time to viral negativity (qRT-PCR) versus placebo,[1]; Compound (1) 300 mg bid,13%
same,Change in AUC Viral Load (by qRT-PCR) Days 1 to 8 versus placebo,[1]; Compound (1) 300 mg bid,−3.6 day*log10 copies/mL
same,reduction of time to viral negativity (qRT-PCR) versus placebo,[1]; Compound (1) 600 mg bid,18%
same,Change in AUC Viral Load (by qRT-PCR) Days 1 to 8 versus placebo,[1]; Compound (1) 600 mg bid,−4.5 day*log10 copies/mL
same,effect on AUC of viral load (by qRT-PCR) over 7 days from start of dosing,[1]; Compound (1) treatment versus placebo,statistically significant and dose-dependent decrease in AUC of viral load
same,Time to influenza A negativity (qRT-PCR) Acceleration Factor,[1]; Cmpd (1) 300 mg + OST placebo,0.87
same,Time to influenza A negativity (qRT-PCR) Acceleration Factor,[1]; Cmpd (1) 600 mg + OST placebo,0.82
same,"Acceleration Factor, time to Influenza A negativity (TCID50), treatment versus placebo",Influenza A; Cmpd (1) 300 mg + OST placebo,0.71
same,"Acceleration Factor, time to Influenza A negativity (TCID50), treatment versus placebo",Influenza A; Cmpd (1) 600 mg + OST placebo,0.72
same,reduction in time to negative viral load (viral culture) versus placebo,Influenza A; Compound (1) 300 mg bid,29%
same,reduction in time to negative viral load (viral culture) versus placebo,Influenza A; Compound (1) 600 mg bid,28%

# — patent US20200054633A1 (priority 2017, published 2020)
